{"source": "patent US20070172424A1", "about": "“Enabling drug adherence through closed loop monitoring & communication” (priority 2006, published 2007)", "key": {"[1]": {"settings": "rats, within 24 hours of administration; cited from earlier work"}, "[2]": {"settings": "in vivo", "protocol": "The ability to detect the blood concentration of a pain reliever, such as liquid acetaminophen in the blood stream by measuring a tracer is described. The research is carried out by two researchers A & B.\n10 ml liquid cough medicine (acetaminophen) 10 ml of 80 proof vodka\nResearcher “A” combines the liquid cough medicine together with the vodka in a common flask. “A” stirs until mixed. “A” gives the mixture to the study subject to consume orally. Waits 30 minutes. Subject breathes into breathalyzer, “A” extracts blood sample. “A” repeats both measurements 8 more times at 30 minute intervals. “A” compares alcohol readings with a PK curve for alcohol; compares mass spectrometer analysis of blood for the presence of acetaminophen with a PK curve for acetaminophen.\nThe standard PK curves for alcohol & acetaminophen are provided to “B”, and he is told the must analyze one reading that was taken 2 hours after ingestion, and determine whether the alcohol reading was within the anticipated range of PK curve. He is given the alcohol breathalyzer result for 2 hours after ingestion."}}, "data": [{"smiles": "CC(C)=CCCC(C)=CC=O", "note": "[Citral]", "values": [{"measurement": "fraction of the given dose excreted in urine", "setting": "[1]", "value": 50, "unit": "%"}]}, {"smiles": "CC(=O)Nc1ccc(O)cc1", "note": "[acetaminophen]", "values": [{"measurement": "PK results versus standard PK curve for acetaminophen", "setting": "[2]; po", "value": "fall within range of the standard PK curve"}]}, {"smiles": "CCO", "note": "[alcohol]", "values": [{"measurement": "2-hour breathalyzer reading versus anticipated range of PK curve", "setting": "[2]", "value": "fall within statistical range"}, {"measurement": "PK results versus standard PK curve for alcohol", "setting": "[2]; po", "value": "fall within range of the standard PK curve"}]}]}
